Measured values from publication PMC6301270 (MedChemComm, 2018).

System: T.b. brucei (strain 427) bloodstream form parasites
Experiment: T.b. brucei single concentration screen (10 μM)
Conditions: Trypanosoma brucei, read-out: T.b.brucei % viability (10 µM)

Compound | viability at 10 µM [%]
CC(C)(C)c1cc(C(=O)Nc2cccnc2)cc(C(=O)Nc2cccnc2)c1 [MMV020982, CC(C)(C)c1cc(cc(c1)C(=O)Nc2cccnc2)C(=O)Nc3cccnc3] | 83
CO/C=C(/C(=O)OC)c1ccccc1Oc1cc(Oc2ccccc2C#N)ncn1 [MMV021057, CO\C=C(\C(=O)OC)/c1ccccc1Oc2cc(Oc3ccccc3C#N)ncn2] | 103
Cc1cc(NCC(C)C)c2n[nH]c(-c3ccccc3)c2n1 [MMV021375, CC(C)CNc1cc(nc2c([nH]nc12)-c1ccccc1)C] | 64
Cc1cc(NCCc2ccccc2)nc(NC(=N)Nc2ccc(Cl)cc2)n1 [MMV021660, Cc1cc(NCCc2ccccc2)nc(NC(=N)Nc3ccc(Cl)cc3)n1] | 47
CCN(CC)CCCN1CCN(C(=O)c2cccc(-c3noc(C(F)(F)F)n3)c2)CC1 [MMV022236, CCN(CC)CCCN1CCN(CC1)C(=O)c2cccc(c2)c3noc(n3)C(F)(F)F] | 103
c1ccc2c(c1)CN(CC1CC1)CC1(CCN(Cc3c[nH]c4cnccc34)CC1)O2 [MMV023183, C(C1CC1)N2Cc3ccccc3OC4(CCN(Cc5c[nH]c6cnccc56)CC4)C2] | 93
Cc1nc(-c2cccc(NCc3ccccc3)c2)[nH]c1C [MMV023227, Cc1nc([nH]c1C)c2cccc(NCc3ccccc3)c2] | 102
Nc1ncc(-c2cn[nH]c2)cc1-c1nc2cc(Cl)cnc2[nH]1 [MMV023370, Nc1ncc(cc1c2nc3cc(Cl)cnc3[nH]2)c4cn[nH]c4] | 88
O=C(NC1CCN(c2ccnc3ccccc23)C1)c1cccc(C(F)(F)F)c1 (stereo not drawn) [MMV023388, FC(F)(F)c1cccc(c1)C(=O)NC2CCN(C2)c3ccnc4ccccc34] | 78
NS(=O)(=O)c1cccc(-c2ccc3ncc(N4CCOCC4)nc3c2)c1 [MMV023860, NS(=O)(=O)c1cccc(c1)c2ccc3ncc(nc3c2)N4CCOCC4] | 110
CC(C)(C)c1cc(C(=O)N2CCN(c3nccnc3C#N)CC2)n(Cc2ccccc2)n1 [MMV023949, CC(C)(C)c1cc(C(=O)N2CCN(CC2)c3nccnc3C#N)n(Cc4ccccc4)n1] | 115
O=C(Nc1cccc(-c2ccc(NCCCN3CCCC3)nc2)c1)c1ccccc1 [MMV023953, O=C(Nc1cccc(c1)c2ccc(NCCCN3CCCC3)nc2)c4ccccc4] | 57
c1cncc(NCc2ccc(-c3cc4ccncc4cc3OC3CCNCC3)s2)c1 [MMV023969, C(Nc1cccnc1)c2ccc(s2)c3cc4ccncc4cc3OC5CCNCC5] | 79
COc1ccc(-c2cnc3ccc(N4CCCC4)nn23)cc1OC [MMV023985, COc1ccc(cc1OC)c2cnc3ccc(nn23)N4CCCC4] | 91
NS(=O)(=O)c1cncc(-c2ccc3nccc(-c4cn[nH]c4)c3n2)c1 [MMV024101, NS(=O)(=O)c1cncc(c1)c2ccc3nccc(c4cn[nH]c4)c3n2] | 36
Cc1ccc(S(=O)(=O)n2cc(-c3ccnc(N)c3)c3cc(Br)cnc32)cc1 [MMV024114, Cc1ccc(cc1)S(=O)(=O)n2cc(c3ccnc(N)c3)c4cc(Br)cnc24] | 52
CN(C)CCNC(=O)N1CCCN(c2ncnc3cc(-c4ccccc4)sc23)CC1 [MMV024195, CN(C)CCNC(=O)N1CCCN(CC1)c2ncnc3cc(sc23)c4ccccc4] | 79
O=C(NC1CC1)c1ccc(N2CCC(Cc3ccccc3)CC2)nc1 [MMV024397, O=C(NC1CC1)c2ccc(nc2)N3CCC(Cc4ccccc4)CC3] | 72
O=C(Nc1cccc(Cl)c1)c1cnc(N2CCN(c3ccncc3)CC2)c(Cl)c1 [MMV024406, Clc1cccc(NC(=O)c2cnc(N3CCN(CC3)c4ccncc4)c(Cl)c2)c1] | 63

Compound | viability at 10 µM [%]
CN(C(=O)c1cc2c(-c3cncnc3)cccc2[nH]1)c1ccccc1 [MMV024443, CN(C(=O)c1cc2c(cccc2[nH]1)c3cncnc3)c4ccccc4] | 59
Cc1cccc(C(=O)Nc2ccnc(N(C)C3CCN(CC(C)C)CC3)c2)c1 [MMV024829, CC(C)CN1CCC(CC1)N(C)c2cc(NC(=O)c3cccc(C)c3)ccn2] | 56
O=C(Nc1ccc(N2CCNCC2)nc1)c1oc(-c2ccccc2)nc1C(F)(F)F [MMV024937, FC(F)(F)c1nc(oc1C(=O)Nc2ccc(nc2)N3CCNCC3)c4ccccc4] | 77
CS(=O)(=O)c1cccc(-c2cnc3[nH]cc(-c4ccc(CCC(=O)O)cc4)c3c2)c1 [MMV026020, CS(=O)(=O)c1cccc(c1)c2cnc3[nH]cc(c4ccc(CCC(=O)O)cc4)c3c2] | 61
Nc1nccc2ccc(Oc3ccncc3)cc12 [MMV026313, Nc1nccc2ccc(Oc3ccncc3)cc12] | 97
CCn1ncc2c(NC3CCOCC3)c(CNC(=O)c3ccnn3C)c(C)nc21 [MMV026356, CCn1ncc2c(NC3CCOCC3)c(CNC(=O)c4ccnn4C)c(C)nc12] | 80
OCc1ccc(-c2cncc(Nc3cccc(Cl)c3)c2)cc1 [MMV026468, OCc1ccc(cc1)c2cncc(Nc3cccc(Cl)c3)c2] | 88
CC(C)(C)CN1C(=O)C(c2ccccc2)(c2ccccc2)N=C1N [MMV026550, CC(C)(C)CN1C(=NC(C1=O)(c2ccccc2)c3ccccc3)N] | 104
CC(C)(CN)c1nc(-c2ccc(Cl)c(O)c2)c(-c2ccnc(N)n2)[nH]1 [MMV030734, CC(C)(CN)c1nc(c2ccc(Cl)c(O)c2)c([nH]1)c3ccnc(N)n3] | 33
CNC(=O)C1Cc2c([nH]c3cc(Cl)ccc23)C2(CCN(CCc3ccccc3)CC2)N1 (stereo not drawn) [MMV031011, CNC(=O)C1Cc2c([nH]c3cc(Cl)ccc23)C4(CCN(CCc5ccccc5)CC4)N1] | 106
FC(F)(F)c1cccc(-c2nc3c(NCc4ccncc4)nccc3[nH]2)c1 [MMV032967, FC(F)(F)c1cccc(c1)c2nc3c(NCc4ccncc4)nccc3[nH]2] | 79
O=C1COCc2ccc(Br)cc2N1Cc1ccc(C(F)(F)F)cc1 [MMV032995, FC(F)(F)c1ccc(CN2C(=O)COCc3ccc(Br)cc23)cc1] | 113
c1ccc(Oc2ccc(-c3cc(N4CCOCC4)[nH]n3)cc2)cc1 [MMV045105, C1CN(CCO1)c2cc(n[nH]2)c3ccc(Oc4ccccc4)cc3] | 33
COc1cc(C(F)(F)F)nc2ccc(C)c(N)c12 [MMV047015, COc1cc(nc2ccc(C)c(N)c12)C(F)(F)F] | 113
N#Cc1ccc(-c2ccc(OCC(N)=O)cc2)cc1 [MMV053220, NC(=O)COc1ccc(cc1)c2ccc(cc2)C#N] | 68
CC(=O)N1CCc2cc3nc(C)cc(C)c3cc21 [MMV054312, CC(=O)N1CCc2cc3nc(C)cc(C)c3cc12] | 91
Cc1cc(C)nc(-n2nc(C)cc2Nc2ccccc2)n1 [MMV062221, Cc1cc(C)nc(n1)n2nc(C)cc2Nc3ccccc3] | 103
Cc1nn(Cc2ccccc2)c(Cl)c1C(=O)NC1CCCCCC1 [MMV063404, Cc1nn(Cc2ccccc2)c(Cl)c1C(=O)NC3CCCCCC3] | 96
FC(F)(F)c1nnc2ccc(Cl)nn12 [MMV069458, FC(F)(F)c1nnc2ccc(Cl)nn12] | 100

Compound | viability at 10 µM [%]
O=C1N(Cc2cc3ccccc3s2)CC2CN(Cc3ccccc3)CCN12 (stereo not drawn) [MMV084603, O=C1N(Cc2cc3ccccc3s2)CC4CN(Cc5ccccc5)CCN14] | 99
O=C(Nc1cnc2ccccc2c1)c1cccc(-n2cnnn2)c1 [MMV084864, O=C(Nc1cnc2ccccc2c1)c3cccc(c3)n4cnnn4] | 80
COc1cncc(-c2cncc(N3CCN(c4ccncc4)CC3)n2)c1 [MMV085071, COc1cncc(c1)c2cncc(n2)N3CCN(CC3)c4ccncc4] | 79
O=C(C(Cc1c[nH]c2ccccc12)NS(=O)(=O)c1ccc(Cl)cc1)N1CCCCC1 (stereo not drawn) [MMV085210, Clc1ccc(cc1)S(=O)(=O)NC(Cc2c[nH]c3ccccc23)C(=O)N4CCCCC4] | 108
CCCNC(=O)N1CCC2(CC1)CC(=O)c1cc(C)ccc1O2 [MMV085230, CCCNC(=O)N1CCC2(CC1)CC(=O)c3cc(C)ccc3O2] | 103
N#Cc1ccc(-c2cnc(N)c(-c3ccc(C(N)=O)cc3)n2)cc1 [MMV085499, NC(=O)c1ccc(cc1)c2nc(cnc2N)c3ccc(cc3)C#N] | 31
O=C(Nc1nnc(-c2ccc(Cl)cc2)o1)c1cccc(C(F)(F)F)c1 [MMV102872, FC(F)(F)c1cccc(c1)C(=O)Nc2oc(nn2)c3ccc(Cl)cc3] | 51
CCC(C)NC(=O)c1ccc(NC(=O)C2(c3ccccc3)CCCC2)cc1 (stereo not drawn) [MMV146306, CCC(C)NC(=O)c1ccc(NC(=O)C2(CCCC2)c3ccccc3)cc1] | 69
Cc1cc(Cl)ccc1NC(=O)CCc1ccc(S(=O)(=O)NCC(C)C)cc1 [MMV161996, CC(C)CNS(=O)(=O)c1ccc(CCC(=O)Nc2ccc(Cl)cc2C)cc1] | 97
COc1ccc(C2(C(=O)Nc3ccc(Br)cc3)CCCC2)cc1 [MMV200748, COc1ccc(cc1)C2(CCCC2)C(=O)Nc3ccc(Br)cc3] | 100
COc1ccc(OC(C)C(=O)Nc2ccc(Cl)cc2C)cc1 (stereo not drawn) [MMV202458, COc1ccc(OC(C)C(=O)Nc2ccc(Cl)cc2C)cc1] | 94
COc1cccc(NC(=O)c2c(NC(=O)c3cccnc3)sc3c2CCC3)c1 [MMV228911, COc1cccc(NC(=O)c2c3CCCc3sc2NC(=O)c4cccnc4)c1] | 97
COc1cccc(-c2cc3c(Nc4cccnc4)nccc3[nH]2)c1 [MMV392832, COc1cccc(c1)c2cc3c(Nc4cccnc4)nccc3[nH]2] | 101
CN1CCN(c2nccc3[nH]c(-c4cccc(F)c4)cc23)CC1 [MMV393144, CN1CCN(CC1)c2nccc3[nH]c(cc23)c4cccc(F)c4] | 59
Cc1cc(O)nc(-n2nc(C)cc2C)n1 [MMV393995, Cc1cc(O)nc(n1)n2nc(C)cc2C] | 71
CCc1nc2ccc(C(=O)NCc3ccc4c(c3)OCO4)cn2c1N(C)Cc1cccs1 [MMV407539, CCc1nc2ccc(cn2c1N(C)Cc3cccs3)C(=O)NCc4ccc5OCOc5c4] | 82
CCOc1ccccc1NC(C)C(=O)Nc1cc(C(F)(F)F)ccc1N1CCOCC1 (stereo not drawn) [MMV407834, CCOc1ccccc1NC(C)C(=O)Nc2cc(ccc2N3CCOCC3)C(F)(F)F] | 104
CS(=O)(=O)Cc1nc2ccccc2oc1=O [MMV553002, CS(=O)(=O)CC1=Nc2ccccc2OC1=O] | 114
c1ccc(-c2cc(N3CCCCC3)c3ccccc3n2)nc1 [MMV560185, C1CCN(CC1)c2cc(nc3ccccc23)c4ccccn4] | 112
